The source made the active and inactive calls. The rule behind the calls is not given here.

The test system of one data set is Leishmania donovani. Briefly: Antileishmanial activity against Leishmania donovani MHOM/SD/62/1S-CL2D axenic amastigotes after 72 hrs by tetrazolium dye-based microplate reader method. The format is functional, organism-based.
Data set [1] is described as follows: Selectivity index, ratio of IC50 for rat L6 cells to IC50 for chloroquine-resistant Plasmodium falciparum K1. The format is toxicity, cell-based. Conditions: read-out: Ratio IC50.
A short description of data set [2]: Selectivity index, ratio of IC50 for rat L6 cells to IC50 for blood stream form of Trypanosoma brucei rhodesiense STIB900 trypomastigotes. It is filed as toxicity, cell-based. Conditions: read-out: Ratio IC50.
In a further data set the test system is Plasmodium falciparum. Briefly: Antiplasmodial activity after 48 hrs against chloroquine-resistant Plasmodium falciparum K1 by [3H]hypoxanthine uptake. It is filed as functional, organism-based.
Data set [3] in a line: Selectivity index, ratio of IC50 for rat L6 cells to IC50 for Leishmania donovani MHOM/SD/62/1S-CL2D axenic amastigotes. The conditions noted are these: read-out: Ratio IC50. The format is toxicity, cell-based.
In a further data set the test system is L6. In words: Cytotoxicity against rat L6 cells after 70 hrs by alamar blue assay. The format is cell-based. Conditions: L6, 70 h. In general terms: The colour change of resazurin is a common sign of viable cells or microbes.
In data set [4] the test system is Trypanosoma brucei rhodesiense. In words: Antitrypanosomal activity against blood stream form of Trypanosoma brucei rhodesiense STIB900 trypomastigotes after 70 hrs by alamar blue assay. The conditions noted are these: STIB900, 70 h. The format is functional, organism-based.
The test system of data set [5] is Trypanosoma brucei rhodesiense. Briefly: Antitrypanosomal activity against Trypanosoma brucei rhodesiense STIB900 in mouse model of acute trypanosomiasis assessed as increase in survival time at 20 mg/kg administered daily for 4 days. It is filed as functional, organism-based. Also on record: dose 20 mg/kg.
Data set [6] relates to Trypanosoma brucei rhodesiense. In words: Antitrypanosomal activity against Trypanosoma brucei rhodesiense STIB900 in mouse model of acute trypanosomiasis assessed as induction of cure at 20 mg/kg administered daily for 4 days. It is filed as functional, organism-based. Also on record: dose 20 mg/kg.
The subject of data set [7] is Trypanosoma brucei rhodesiense. Briefly: Ratio of pentamidine IC50 to compound IC50 for blood stream form of Trypanosoma brucei rhodesiense STIB900 trypomastigotes. It is filed as functional.

In general, IC50 refers to the concentration needed to halve the response being measured. A low value points to higher potency. For the compound `c1ccc(OCCCCCCOc2cccc(-c3cc4cc(C5=NCCN5)ccc4o3)c2)cc1`, the IC50 in the data set with Leishmania donovani came to 1900 nM; in the data set with Plasmodium falciparum it was 49 nM. Besides, the selectivity ratio in data set [1] is 51; in data set [2], 26; in data set [3], 1.

On to `CC(C)NC(=N)c1ccc2oc(-c3cccc(OCCCCCCOc4ccccc4)c3)cc2c1`, for which the IC50 was 7400 nM in the data set on L6, 7000 nM with Leishmania donovani, 1160 nM in [4] and 183 nM in the data set with Plasmodium falciparum. The selectivity ratio in data set [1] came out at 40; in data set [2], 6; in data set [3], 1.

In the case of `N=C(N)c1ccc(OCCCOc2ccc(-c3cc4ccc(C(=N)N)cc4o3)cc2)cc1`, the IC50 in the data set with L6 is 8600 nM; in the data set on Leishmania donovani, 780 nM; in data set [4] it was 25 nM. The result in data set [5] was Active. Further, in data set [6], the outcome was inactive. The “Ratio IC50” value in data set [7] is 8.

These data come from ChEMBL document CHEMBL1153541 (J Med Chem, 2009).
